Test results taken from ChEMBL document CHEMBL5365473, “Novel Sulfonylurea-Based NLRP3 Inflammasome Inhibitor for Efficient Treatment of Nonalcoholic Steatohepatitis, Endotoxic Shock, and Colitis” (J Med Chem, 2023).
Calls of active or inactive are those of the source. No cut-off for these calls is given here.

Columns and labels:
[1] = Toxicity against female ICR mouse assessed as effect on kidney weight at 200 to 500 mg/kg administered via gavage for 12 days; assay type: organism-based; settings: in vivo, po, 288 h, dose 200-500 mg/kg, time 12 day
[2] = Drug uptake in Sprague-Dawley rat jejunum at 50 mg/kg, po measured for 24 hrs by LC-MS/MS analysis; assay type: ADME, organism-based; settings: in vivo
[3] = Toxicity against female ICR mouse assessed as effect on ratio of plasma AST to ALT level at 200 to 500 mg/kg administered via gavage for 12 days; assay type: organism-based; settings: in vivo, po, 288 h, dose 200-500 mg/kg, time 12 day
[4] = target: NACHT, LRR and PYD domains-containing protein 3 (Mus musculus) (UniProt Q8R4B8); assay: Inhibition of NLRP3 inflammasome in mouse J774.A1 cells assessed as inhibition of caspase-1 activation primed with LPS for 4.5 hrs followed by incubation with compound for 2.5 hrs and later stimulated with ATP for 30 mins by immunoblot analysis; assay type: cell-based; settings: dose 3-30 nM, time 3.0 hrs
Chain of NACHT, LRR and PYD domains-containing protein 3 (Mus musculus) (Q8R4B8 whole entry, the tested form may be a part): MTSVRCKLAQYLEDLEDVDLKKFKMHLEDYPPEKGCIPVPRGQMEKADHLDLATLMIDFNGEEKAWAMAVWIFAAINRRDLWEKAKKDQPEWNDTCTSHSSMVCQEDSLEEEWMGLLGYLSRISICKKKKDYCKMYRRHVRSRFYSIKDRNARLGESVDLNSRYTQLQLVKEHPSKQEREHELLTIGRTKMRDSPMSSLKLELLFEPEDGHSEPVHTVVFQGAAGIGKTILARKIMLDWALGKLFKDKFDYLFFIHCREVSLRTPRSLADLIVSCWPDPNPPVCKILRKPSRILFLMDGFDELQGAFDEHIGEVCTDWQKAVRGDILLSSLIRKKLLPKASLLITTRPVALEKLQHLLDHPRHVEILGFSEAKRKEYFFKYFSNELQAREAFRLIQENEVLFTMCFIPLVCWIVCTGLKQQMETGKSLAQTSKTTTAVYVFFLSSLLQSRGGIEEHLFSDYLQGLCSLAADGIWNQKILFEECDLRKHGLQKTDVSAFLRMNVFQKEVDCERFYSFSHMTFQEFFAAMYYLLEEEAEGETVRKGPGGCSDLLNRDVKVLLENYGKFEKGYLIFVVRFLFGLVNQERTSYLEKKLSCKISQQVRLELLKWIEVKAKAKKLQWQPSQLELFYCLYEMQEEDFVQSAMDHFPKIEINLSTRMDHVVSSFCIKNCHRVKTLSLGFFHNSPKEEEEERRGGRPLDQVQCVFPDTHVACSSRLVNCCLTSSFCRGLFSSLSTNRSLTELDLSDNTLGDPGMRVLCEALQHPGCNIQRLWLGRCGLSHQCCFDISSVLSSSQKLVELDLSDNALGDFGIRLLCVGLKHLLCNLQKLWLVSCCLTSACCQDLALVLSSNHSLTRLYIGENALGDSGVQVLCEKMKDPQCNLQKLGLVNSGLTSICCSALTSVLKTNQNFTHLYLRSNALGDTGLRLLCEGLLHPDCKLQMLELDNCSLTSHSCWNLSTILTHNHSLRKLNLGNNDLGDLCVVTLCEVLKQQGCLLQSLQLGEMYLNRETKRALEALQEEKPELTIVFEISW

[5] = Drug uptake in Sprague-Dawley rat stomach at 50 mg/kg, po measured for 24 hrs by LC-MS/MS analysis; assay type: ADME, organism-based; settings: in vivo
Mus musculus [6] = assay: Antiinflammatory activity against LPS-induced lethal septic shock C57BL/6 mouse model assessed as effect on TNF-alpha level at 40 mg/kg, ip administered for 1 hr prior to LPS challenge and measured after 2.5 hrs by ELISA; assay type: functional, organism-based; settings: time 3.5 hrs
Mus musculus [7] = assay: Antiinflammatory activity against LPS-induced lethal septic shock C57BL/6 mouse model assessed as increase in animal's survival rate at 20 mg/kg, ip administered for 1 hr prior to LPS challenge and measured for 72 hrs; assay type: functional; settings: time 73 hrs
[8] = Oral bioavailability in ICR mouse at 10 mg/kg by LC-MS/MS analysis; assay type: ADME, organism-based; settings: in vivo
Mus musculus [9] = assay: Antiinflammatory activity against MCD diet-induced NASH C57BL/6 mouse model assessed as protection against MCD diet-induced increase in liver to body weight ratio at 40 mg/kg, po administered via gavage for 5 weeks; assay type: functional, organism-based
Mus musculus [10] = assay: Antiinflammatory activity against DSS-induced ulcerative colitis C57BL/6 mouse assessed as reduction in mucosal barrier disruption in colon at 10 mg/kg, ip administered for 9 days and measured on day 10 by H and E staining based analysis; assay type: functional, organism-based; settings: time 10.0 day
[11] = Tmax in ICR mouse at 5 mg/kg, iv by LC-MS/MS analysis; assay type: ADME, organism-based; settings: in vivo
[12] = Drug uptake in Sprague-Dawley rat heart at 50 mg/kg, po measured for 24 hrs by LC-MS/MS analysis; assay type: ADME, organism-based; settings: in vivo
Mus musculus [13] = assay: Antiinflammatory activity against MCD diet-induced NASH C57BL/6 mouse model assessed as reduction in TUNEL-positive hepatic cells at 40 mg/kg, po administered via gavage for 5 weeks by TUNEL assay; assay type: functional, organism-based
[14] = Apparent volume of distribution in ICR mouse at 5 mg/kg, iv by LC-MS/MS analysis; assay type: ADME, organism-based; settings: in vivo, read-out: Vz
[15] = Effect on immune cell numbers in MCS diet-fed C57BL/6 mouse assessed as effect on CD45 expression at 40 mg/kg, po administered via gavage for 5 weeks by immunofluorescence staining based analysis; assay type: toxicity, organism-based; settings: in vivo, 840 h
[16] = target: NACHT, LRR and PYD domains-containing protein 3 (Mus musculus) (UniProt Q8R4B8); assay: Inhibition of NLRP3 inflammasome in mouse J774.A1 cells assessed as inhibition of IL-1 beta secretion at 30 nM primed with LPS for 4.5 hrs followed by incubation with compound for 24 hrs and later stimulated with nigericin for 1 hr by immunoblot analysis; assay type: cell-based; settings: time 25.0 hrs
[17] = target: NLR family CARD domain-containing protein 4 (Mus musculus) (UniProt Q3UP24); assay: Inhibition of NLRC4 inflammasome in mouse J774.A1 cells assessed as inhibition of IL-1 beta secretion at 30 nM primed with LPS for 4.5 hrs followed by incubation with compound for 24 hrs and later stimulated with flagellin for 24 hrs by immunoblot analysis; assay type: cell-based; settings: time 48.0 hrs
Chain of NLR family CARD domain-containing protein 4 (Mus musculus) (Q3UP24 whole entry, the tested form may be a part): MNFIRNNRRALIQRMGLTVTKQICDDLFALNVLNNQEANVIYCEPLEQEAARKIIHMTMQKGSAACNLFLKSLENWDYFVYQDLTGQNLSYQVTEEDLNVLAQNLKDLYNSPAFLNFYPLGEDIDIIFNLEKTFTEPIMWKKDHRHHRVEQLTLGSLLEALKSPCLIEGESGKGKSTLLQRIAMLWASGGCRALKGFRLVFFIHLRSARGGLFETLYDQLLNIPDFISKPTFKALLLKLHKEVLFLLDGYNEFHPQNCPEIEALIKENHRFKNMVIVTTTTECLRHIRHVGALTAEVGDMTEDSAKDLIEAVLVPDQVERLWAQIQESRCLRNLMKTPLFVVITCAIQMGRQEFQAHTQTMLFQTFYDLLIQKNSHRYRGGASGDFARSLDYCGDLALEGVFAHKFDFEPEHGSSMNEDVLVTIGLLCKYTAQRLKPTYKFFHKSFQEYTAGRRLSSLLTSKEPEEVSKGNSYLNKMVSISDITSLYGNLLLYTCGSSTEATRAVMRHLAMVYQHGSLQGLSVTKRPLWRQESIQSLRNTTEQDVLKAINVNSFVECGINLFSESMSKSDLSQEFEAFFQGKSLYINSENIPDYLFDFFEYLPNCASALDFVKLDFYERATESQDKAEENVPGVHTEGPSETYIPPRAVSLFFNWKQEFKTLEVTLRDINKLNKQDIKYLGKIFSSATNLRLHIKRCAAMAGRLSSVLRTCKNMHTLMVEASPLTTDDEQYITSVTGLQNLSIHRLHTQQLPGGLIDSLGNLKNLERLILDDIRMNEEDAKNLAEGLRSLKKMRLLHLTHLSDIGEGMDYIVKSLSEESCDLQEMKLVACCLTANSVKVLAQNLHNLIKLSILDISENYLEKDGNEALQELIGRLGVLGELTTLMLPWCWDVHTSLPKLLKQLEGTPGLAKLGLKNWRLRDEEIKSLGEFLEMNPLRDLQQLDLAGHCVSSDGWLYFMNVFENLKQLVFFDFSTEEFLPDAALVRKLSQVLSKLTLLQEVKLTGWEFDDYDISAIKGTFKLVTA

Mus musculus [18] = assay: Antiinflammatory activity against MCD diet-induced NASH C57BL/6 mouse model assessed as improvement in liver morphology at 40 mg/kg, po administered via gavage for 5 weeks by Sirius red staining based analysis; assay type: functional, organism-based
[19] = Toxicity against female ICR mouse assessed as effect on body weight at 200 to 500 mg/kg administered via gavage for 12 days; assay type: organism-based; settings: in vivo, po, 288 h, dose 200-500 mg/kg, time 12 day
[20] = Toxicity against female ICR mouse assessed as effect on liver weight at 200 to 500 mg/kg administered via gavage for 12 days; assay type: organism-based; settings: in vivo, po, 288 h, dose 200-500 mg/kg, time 12 day
[21] = target: NACHT, LRR and PYD domains-containing protein 3 (Homo sapiens) (UniProt Q96P20); assay: Inhibition of NLRP3 inflammasome in PMA-induced differentiated human THP-1 cells assessed as inhibition of caspase-1 activation primed with LPS for 4.5 hrs followed by incubation with compound for 2.5 hrs and later stimulated with ATP for 1 hr by immunoblot analysis; assay type: cell-based; settings: dose 3-30 nM, time 3.5 hrs
Chain of NACHT, LRR and PYD domains-containing protein 3 (Homo sapiens) (Q96P20 whole entry, the tested form may be a part): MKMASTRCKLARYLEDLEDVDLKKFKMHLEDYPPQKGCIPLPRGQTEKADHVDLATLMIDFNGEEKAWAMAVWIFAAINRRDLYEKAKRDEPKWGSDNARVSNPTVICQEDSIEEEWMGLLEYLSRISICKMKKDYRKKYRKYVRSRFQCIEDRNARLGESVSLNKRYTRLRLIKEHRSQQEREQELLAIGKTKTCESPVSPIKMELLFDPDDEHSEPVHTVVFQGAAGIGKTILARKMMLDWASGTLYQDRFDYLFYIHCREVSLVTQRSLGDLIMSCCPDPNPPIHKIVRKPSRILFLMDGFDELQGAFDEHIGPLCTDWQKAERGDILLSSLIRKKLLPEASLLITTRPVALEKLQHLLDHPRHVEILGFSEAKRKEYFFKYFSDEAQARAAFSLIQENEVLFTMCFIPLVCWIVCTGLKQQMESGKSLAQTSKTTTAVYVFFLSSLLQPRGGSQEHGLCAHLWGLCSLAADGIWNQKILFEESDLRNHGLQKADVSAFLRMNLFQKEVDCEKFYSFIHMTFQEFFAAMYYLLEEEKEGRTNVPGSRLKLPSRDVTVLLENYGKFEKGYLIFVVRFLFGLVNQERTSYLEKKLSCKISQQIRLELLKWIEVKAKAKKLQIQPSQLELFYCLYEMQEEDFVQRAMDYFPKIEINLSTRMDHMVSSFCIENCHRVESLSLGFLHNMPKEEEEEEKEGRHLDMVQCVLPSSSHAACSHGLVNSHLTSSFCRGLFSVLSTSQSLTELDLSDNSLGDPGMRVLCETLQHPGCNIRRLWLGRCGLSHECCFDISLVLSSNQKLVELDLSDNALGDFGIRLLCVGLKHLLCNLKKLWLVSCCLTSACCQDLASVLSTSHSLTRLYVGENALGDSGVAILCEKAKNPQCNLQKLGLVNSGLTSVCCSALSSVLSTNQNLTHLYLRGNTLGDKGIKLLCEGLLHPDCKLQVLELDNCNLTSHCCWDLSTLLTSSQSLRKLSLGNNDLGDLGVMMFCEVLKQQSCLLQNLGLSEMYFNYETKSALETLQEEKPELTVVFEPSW

L02 = assay: Cytotoxicity against human HL7702 cells assessed as reduction in cell viability at 500 uM measured after 24 hrs by CCK8 assay; assay type: toxicity, cell-based; settings: l02, 24 h
THP-1 = assay: Effect on mitochondrial function in PMA-induced differentiated human THP-1 cells assessed as effect on extracellular ATP-induced decrease in mitochondrial membrane potential at 30 nM pretreated with compound for 24 hrs followed by stimulation with LPS for 4.5 hrs and ATP for 1 hr by MitoTracker red dye based confocal microscopy; assay type: functional, cell-based; settings: time 29.5 hrs
[22] = target: T1, Interferon-inducible protein AIM2 (Mus musculus) (UniProt Q91VJ1); assay: Inhibition of AIM2 inflammasome in mouse J774.A1 cells assessed as inhibition of IL-1 beta secretion at 30 nM primed with LPS for 4.5 hrs followed by incubation with compound for 24 hrs and later stimulated with poly (dA:dT) for 6 hrs by immunoblot analysis; assay type: cell-based; settings: time 30.0 hrs
T1 sequence (whole entry): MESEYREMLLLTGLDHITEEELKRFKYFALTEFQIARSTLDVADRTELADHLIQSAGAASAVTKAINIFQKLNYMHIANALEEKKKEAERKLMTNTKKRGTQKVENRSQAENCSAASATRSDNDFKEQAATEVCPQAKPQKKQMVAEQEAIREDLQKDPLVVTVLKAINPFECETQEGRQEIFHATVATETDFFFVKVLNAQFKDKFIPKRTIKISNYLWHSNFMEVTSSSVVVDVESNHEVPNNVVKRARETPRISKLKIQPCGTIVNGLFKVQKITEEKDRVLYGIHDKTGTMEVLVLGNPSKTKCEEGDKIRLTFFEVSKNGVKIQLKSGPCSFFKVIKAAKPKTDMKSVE

[23] = Half life in ICR mouse at 5 mg/kg, iv by LC-MS/MS analysis; assay type: ADME, organism-based; settings: in vivo
[24] = Toxicity against male ICR mouse assessed as effect on ratio of plasma AST to ALT level at 200 to 500 mg/kg administered via gavage for 12 days; assay type: organism-based; settings: in vivo, po, 288 h, dose 200-500 mg/kg, time 12 day

SMILES: CN(C)Cc1ccc(S(=O)(=O)NC(=O)Nc2c3c(cc4c2CCC4)CCC3)cc1
- Activity [1]: Non-Toxic
- Drug uptake [2]: Active
- Activity [3]: Non-Toxic
- inhibition [4]: Dose-Dependent Effect
- Drug uptake [5]: Active
- Activity (Mus musculus [6]): inactive
- survival at 20 mg/kg (Mus musculus [7]): 20%
- bioavailability [8]: 85.2%
- Activity (Mus musculus [9]): Active
- Activity (Mus musculus [10]): Active
- Tmax [11]: 4.98 min
- Drug uptake [12]: Active
- Activity (Mus musculus [13]): Active
- Vd [14]: 0.226 L/kg
- Activity [15]: Non-Toxic
- inhibition [16]: Active
- inhibition [17]: inactive
- Activity (Mus musculus [18]): Active
- Activity [19]: Non-Toxic
- Activity [20]: Non-Toxic
- inhibition [21]: Dose-Dependent Effect
- Activity (L02): Non-Toxic
- Activity (THP-1): inactive
- inhibition [22]: inactive
- half-life [23]: 4.01 h
- Activity [24]: Non-Toxic
